Paper PMC9645260, “Small-molecule inhibitors of P-Rex guanine-nucleotide exchange factors” (Small GTPases, 2022)
Like-named read-outs stand apart in the source and are kept apart here.

Target: T1, P-Rex1 DHPH domains (Homo sapiens, UniProt Q8TCU6)
T1 construct: 100 nM EE-P-Rex1 DHPH domains (PREX-in1, compounds 2–10 and 30–128); made in house; host or cells: Sf9 cells (baculovirus)
Assay: Liposome-based GEF activity assay, isolated P-Rex1 DHPH domains
Format: biochemical
Details: for remaining activity at 10 µM: 10 µM compound, 100 nM EE-P-Rex1 DHPH domains, 200 nM prenylated EE-Rac1, PREX-in1, compounds 2-10 and 30-128
Protocol: Full-length N-terminally EE-tagged P-Rex1, P-Rex2, the P-Rex1 DH and DHPH domains and the P-Rex2 DH domain were produced in Sf9 cells using baculoviral transduction and were purified using anti-EE beads, as previously described. Briefly, frozen pellets from 500 ml of Sf9 culture infected with P-Rex expressing high-titre baculovirus were resuspended in ice-cold lysis Sf9-cell lysis buffer 2 (1x PBS, 1% Triton X-100, 5 mM EGTA, 1 mM EDTA, 25 mM NaF, 20 mM β-glycerophosphate, 1 mM DTT, 100 µM PMSF, 10 μg/ml each of leupeptin, pepstatin A, aprotinin and antipain) for 5 min and then ultracentrifuged at 118,000 × g for 1 h at 4°C. Supernatants were incubated with pre-washed anti-EE beads for 90 min on ice with end-over-end rotation. Beads were washed 4 times in wash buffer (2x PBS, 0.1% Triton X-100, 1 mM EGTA) and 5 times in elution buffer (1x PBS, 10% glycerol, 1 mM DTT, 1 mM EGTA, 0.01% Na azide), and protein was eluted by incubation with elution buffer containing Ac-EEYMPME peptide as described above. Protein was concentrated in a YM-100 Centricon (Millipore) at 5000 × g at 4°C. Fatty acid-free BSA and glycerol were added to final concentrations of 2 mg/ml and 50%, respectively. Protein concentration and purity were determined by coomassie staining of SDS-PAGE gels. Full-length Tiam1, expressed in and purified from Sf9 cells, was a kind gift from Angeliki Malliri, CRUK Manchester Institute, UK. The ITSN1 DHPH domains and Ect2 DHPH domains, produced in and purified from bacteria, were a kind gift from Kent Rossman, University of North Carolina, Chapel Hill, USA. The DOCK10 DHR2 domain, produced in and purified from bacteria, was a kind gift from Danni Fan, Institute of Cancer Research, London, UK. All small GTPase and GEF proteins were stored in aliquots at −80°C and were snap-frozen in liquid N2 after each use.
Liposome-based GEF activity assays were carried out essentially as described, except that GEFs were incubated with inhibitor compounds prior to the assay. GEFs (full-length P-Rex1, P-Rex2, and Tiam1, P-Rex1 DH and DHPH domains, P-Rex2 DH domain, ITSN1 DHPH domains, ECT2 DHPH domains or DOCK10 DHR2 domain) were diluted in 20 mM HEPES (pH 7.0 at 4°C), 200 mM KCl, 10% ethylene glycerol, 1% betaine, 500 µM EGTA, 0.01% azide. […] The final 10 µl samples contained GTPase, GEF and inhibitor at concentrations as stated, in 20 mM HEPES pH 7.5, 100 mM NaCl, 1 mM MgCl2, 1 mM EGTA, 1 mM DTT, 10 mg/ml fatty acid-free BSA, liposomes consisting of phosphatidylcholine, -serine and -inositol (200 µM each), with or without 10 µM PIP3, 1 µM GTPγS and 80 nM (1 µCi) ^35S-GTPγS. Positive controls contained additionally 2 mM EDTA to induce maximal GTP-loading of the GTPase. Samples were incubated at 30°C for 10 min, and reactions were stopped by the addition of 400 µl ice-cold wash buffer (1x PBS, 1 mM EGTA, 10 mM MgCl2, 1% Triton X-100, 100 µM GTP). Small GTPases were isolated using anti-EE antibody-coupled Sepharose beads or glutathione Sepharose beads, as appropriate, by incubation on ice for 90 min with end-over-end rotation, four washes in ice-cold wash buffer and resuspension of beads in Ultima Gold scintillation fluid (Perkin Elmer). ^35S-GTPγS incorporation was assessed by scintillation counting (Packard 1600TR, Liquid Scintillation Analyser).

T1 sequence (Q8TCU6 49-392 limits assumed): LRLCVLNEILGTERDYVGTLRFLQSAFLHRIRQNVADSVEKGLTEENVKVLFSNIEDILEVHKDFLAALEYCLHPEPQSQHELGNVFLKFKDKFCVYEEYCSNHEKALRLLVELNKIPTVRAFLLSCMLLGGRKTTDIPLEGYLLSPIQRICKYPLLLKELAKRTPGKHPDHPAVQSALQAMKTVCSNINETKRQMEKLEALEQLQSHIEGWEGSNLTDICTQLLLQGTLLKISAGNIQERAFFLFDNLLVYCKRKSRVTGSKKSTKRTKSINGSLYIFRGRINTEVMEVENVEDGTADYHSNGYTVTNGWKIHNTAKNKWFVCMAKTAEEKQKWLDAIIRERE

Compound	remaining activity at 10 µM [%]	inhibition at 10 µM (100 nM DHPH domains, without PIP3, read-out: inhibition of constitutive Rac-GEF activity of isolated P-Rex1 DHPH domains) [%]	inhibition at 10 µM (Rho-GEF selectivity panel, 200 nM GTPase, read-out: inhibition of P-Rex1 DHPH Rac-GEF activity) [%]	IC50 (liposome-based GEF assay, 200 nM prenylated EE-Rac2 as substrate, read-out: IC50 of inhibition of P-Rex1 DHPH Rac-GEF activity) [µM]
CC1CCC(C(C)C)c2nn(C(=O)/C=C\c3ccccc3)c(-c3cccc4ccccc34)c21 (centres unmarked) [#10]	28			
COc1ccc(-c2[nH]nc3c2C(c2ccc(-c4ccc(Cl)cc4)o2)C(C#N)=C(N)O3)cc1 (centres unmarked) [PREX-in1, 6-amino-4-[5-(4-chlorophenyl)-2-furyl]-3-(4-methoxyphenyl)-2,4-dihydropyrano[2,3-c]pyrazole-5-carbonitrile]	3	100	> 90	4.5
